Experimental data published in US10653667B2, “Drug for preventing, treating or preventing metastasis of giant cell tumor that occurs in bone or soft parts, chondrosarcoma, or osteosarcoma, local injection for arterial embolization, and artificial bone” (NIPPON CHEMIPHAR CO., LTD, priority 2013, dated 2020).
Where two headings read alike, the source gives them in different places.

How the values were obtained:
SW1353 cells = assay: Cell invasion of SW1353 cells (Matrigel Invasion Chamber); assay type: cell-based, human
Source text: For the analysis of cell invasion, Matrigel™ Invasion Chamber (BD Bioscience, catalog number 354480), which uses Matrigel as the matrix, was used. […] FIGS. 76 and 77 show microphotographs of invaded cells fixed by immersion into a 4% paraformaldehyde solution, and stained with hematoxylin (magnification is 200 times). From the microphotographs of FIGS. 76 and 77, the patterns of the invaded cells can be understood.

H-EMC-SS cells [1] = details: inventors' earlier reports; cited from earlier work
[2] = test system: PPARγ expression in giant cell tumor of bone (GCTB); assay: PPARγ staining of operational excision sample of GCTB patient administered with zaltoprofen; assay type: in vivo, human; details: 3 tablets per day Soleton Tablet 80 for about 28 days
Method: An operational excision sample of a person who had been administered with 3 tablets per day of the zaltoprofen tablets, Soleton Tablet 80 (generic name: zaltoprofen, 80 mg, Nippon Chemiphar) for about 28 days for pain due to the tumor, and then subjected to the operation, and an operational excision sample of giant cell tumor of bone excised from a patient with giant cell tumor of bone not administered with zaltoprofen (case in which tumor was excised by usual surgical operation according to standard therapy) as a control were subjected to staining of PPARγ, and expression of PPARγ was analyzed by PCR. For PCR, Hs_PPARG_1_SGQuantiTect Primer Assay (200) (QT00029841) of QIAGEN was used. Observation was performed with a fluorescence microscope (BZ-9000) of Keyence (FIG. 11).

giant cell tumor of bone = assay: Curative effect of zaltoprofen (Soleton Tablet) on patients with giant cell tumor of bone; assay type: in vivo, human
Method: Soleton Tablet 80 (generic name: zaltoprofen, 80 mg, Nippon Chemiphar) was administered to a patient with giant cell tumor of bone (GCTB), patient with giant cell tumor of tendon sheath (GCTT), or patient with pigmented villonodular synovitis (PVNS) at a dose of 3 tablets per day (one tablet was administered in the morning, at noon, and in the evening), and the tumor size was evaluated by MRI every several months.
Soleton Tablet 80 (generic name: zaltoprofen, 80 mg, Nippon Chemiphar) was administered to patients with giant cell tumor of bone at a dose of 3 tablets per day (one tablet was administered in the morning, at noon, and in the evening). Four weeks after the start of the administration, the tumor size was evaluated by imaging based on simple Roentgen contrast method, X-ray CT, and MRI (nuclear magnetic resonance imaging). Then, the tumors were excised from patients for whom surgical operation was possible, administration of zaltoprofen was continued at a dose of 240 mg per day (one 80 mg tablet was administered at the time of breakfast, lunch, and supper), and the tumor size was evaluated by imaging based on simple Roentgen contrast method, X-ray CT, and MRI (nuclear magnetic resonance imaging) every 16 weeks. Also for patients for whom surgical operation was difficult, administration of zaltoprofen was continued at a dose of 240 mg per day (one 80 mg tablet was administered at the time of breakfast, lunch, and supper), and the tumor size was evaluated by imaging based on simple Roentgen contrast method, X-ray CT, and MRI (nuclear magnetic resonance imaging) every 8 weeks.

OUMS-27 cells = assay: Proliferation of OUMS-27 cells cultured beforehand with or without GW9662; assay type: cell-based, human; details: GW9662 1 μM, 60 minutes beforehand
Method: Cells of the human chondrosarcoma cell line, OUMS-27, were cultured in the same manner as that of Example 1 until they became sub-confluent, then GW9662 (Sigma Aldrich, M6191), which is an irreversible antagonist of PPARγ, was added to the cells at a final concentration of 1 μM, and the cells were cultured for 60 minutes.

[3] = test system: giant cell tumor of bone (GCTB); assay: Apoptosis analysis of operational excision sample of GCTB patient administered with zaltoprofen; assay type: in vivo, human
Method: An operational excision sample of a person who had been administered with 3 tablets per day of the zaltoprofen tablets, Soleton Tablet 80 (generic name: zaltoprofen, 80 mg, Nippon Chemiphar) for about 28 days for pain due to the tumor, and then subjected to the operation, and an operational excision sample of giant cell tumor of bone extracted from a patient with giant cell tumor of bone not administered with zaltoprofen (case in which tumor was excised by usual surgical operation according to standard therapy) as a control were subjected to caspase 3 staining and Tunel assay, and analyzed for the presence or absence of apoptosis. The caspase 3 protein was fluorescently detected by using Anti-ACTIVE Caspase-3-Ab (Roche) ([…]) (12-4739-81) as the primary antibody, and Donkey F2 Fragment anti-Rabbit IgG PE of eBioscience as the secondary antibody. Observation was performed with a fluorescence microscope (BZ-9000) produced by Keyence (FIG. 10).

[4] = test system: PPARγ expression in giant cell tumor of bone (GCTB); details: patient who had taken zaltoprofen for four weeks at 240 mg per day; inventors' earlier reports; cited from earlier work
[5] = test system: GCTB cultured cells (case 1, case 2); assay: Cell proliferation of GCTB cultured cells in the presence or absence of PPARγ siRNA; assay type: cell-based, human; details: 200 μM zaltoprofen or 60 μM troglitazone; 72 hours
H-EMC-SS cells [6] = assay: Proliferation of H-EMC-SS cells cultured beforehand with PPARγ siRNA or control siRNA; assay type: cell-based, human; details: 400 μM zaltoprofen
Method: Cells of the human chondrosarcoma cell line, H-EMC-SS, were cultured in the same manner as that of Example 1 until they became sub-confluent, PPARγ siRNA (Dharmacon, catalog number M-003436-02-0005) that selectively suppresses expression of PPARγ, or a control siRNA (Dharmacon, catalog number D-001206-14-05) was added to the cells at a final concentration of 100 nM, and the cells were cultured for 48 hours. Then, 400 μM zaltoprofen was added to the cells, color development was performed with Cell Counting Kit-8 (CCK-8, Dojindo) 24 hours thereafter, absorbance was measured at 450 nm further 3 hours thereafter, and the absorbance observed with the pretreatment with PPARγ siRNA was compared with the absorbance observed with the pretreatment with the control siRNA (FIG. 70).

[7] = among the 13 cases of GCTB, zaltoprofen 240 mg per day
[8] = GCTB patient, 3 tablets per day Soleton Tablet 80 for about 28 days, vs patient not administered

Structure (SMILES): CC(C(=O)O)c1ccc2c(c1)CC(=O)c1ccccc1S2 (centres unmarked) [zaltoprofen]
- cell injury seen in microphotographs of invaded cells (SW1353 cells; 100 μM troglitazone, 50 μM celecoxib or 400 μM zaltoprofen, cells only sparsely existed and rolled into small balls): cell injury was realized
- cell invasion remaining (suppressed to) (SW1353 cells; 400 μM zaltoprofen, 24 hours): lower than 20%
- suppression of cell invasion of SW1353 cells (SW1353 cells; all set concentrations, concentration-dependent, 24 hours): suppressed the cell invasion
- suppression of proliferation of H-EMC-SS cells (H-EMC-SS cells [1]): suppress proliferation
- fat cell differentiation in excision sample [2]: fat cell differentiation could be confirmed
- PPARγ-expressing cells in excision sample ([2]; vs patient not administered): PPARγ-expressing cells could be confirmed
- response evaluation (giant cell tumor of bone; GCTB case a): PR (“partial response (PR)” means a state that the total of sizes of tumor has decreased by 30% or more)
- shrinkage of tumor size (giant cell tumor of bone; GCTB case a (person, pelvis)): more than 70%
- recurrence after excision by surgical operation (giant cell tumor of bone; GCTB case a, up to today): no recurrence has been observed
- diameter of the giant cell tumor of bone after taking zaltoprofen (giant cell tumor of bone; GCTB case c, proximal part of left fibula, about nine weeks, 23.3 mm before): 21.0 mm
- diameter of the giant cell tumor of bone after taking zaltoprofen (giant cell tumor of bone; GCTB case d, distal part of right tibia, about eight weeks, 21.7 mm before): 20.5 mm
- change of giant cell tumor of bone (giant cell tumor of bone; GCTB case g): did not shrink, but it also did not grow
- KPS score after taking zaltoprofen (giant cell tumor of bone; GCTB case g, score 80 before): 100
- growth of the giant cell tumor of bone (giant cell tumor of bone; GCTB case j (Zometa and artery embolization used in combination)): about 6%
- KPS score after taking zaltoprofen (giant cell tumor of bone; GCTB case j, score 50 before): 90
- growth of the giant cell tumor of bone (giant cell tumor of bone; GCTB case k): about 10%
- KPS score after taking zaltoprofen (giant cell tumor of bone; GCTB case k, score 80 before): 90
- increase of the size of the giant cell tumor of bone (giant cell tumor of bone; GCTB case l (printed case 1; left knee part), took only about a half of the prescribed dose): 19.8%
- response evaluation (giant cell tumor of bone; GCTB case m (printed case in; person, proximal part of right tibia, multiple metastases to the lung)): PD (“progressive disease (PD)” means a state that the total of sizes of tumor has increased by 20% or more, and increased by 5 mm or more in terms of absolute value, or a state that new lesion has appeared)
- KPS score after taking zaltoprofen (giant cell tumor of bone; GCTB case m, score 90 before): 100
- number of cases with hardening of bones on X-ray CT images (giant cell tumor of bone; GCTB cases a, b, d, g, i, and j): 6 cases
- KPS score after taking zaltoprofen (giant cell tumor of bone; GCTB cases a, c, and d, score 80 before): 90
- change of giant cell tumors of bone (giant cell tumor of bone; GCTB cases a, c, d, e, and f, no treatment except zaltoprofen): shrank
- new metastasis during the taking of zaltoprofen (giant cell tumor of bone; GCTB patients): any new metastasis of giant cell tumor of bone was not observed
- recurrence during the taking of zaltoprofen after ablative operation (giant cell tumor of bone; GCTB patients subjected to ablative operation): no recurrence of giant cell tumor of bone could be confirmed
- number of cases diagnosed partial response (PR) (giant cell tumor of bone; [7]): one
- number of cases diagnosed progressive disease (PD) (giant cell tumor of bone; [7]): one
- cases in which the KPS score worsened (giant cell tumor of bone; cases of giant cell tumor of bone who took zaltoprofen): no case in which the KPS score worsened
- MRI finding indicated by arrows (giant cell tumor of bone; recurrence of GCTB in the pelvic part (case a), after two months (FIG. 35) and four months (FIG. 36)): tumor necrosis region
- tumor size by MRI (giant cell tumor of bone; recurrence of GCTB in the pelvic part (person; case a), 3 tablets per day, after two months and four months): gradual shrinkage of the tumor
- cell proliferation-suppressing action after preincubation with GW9662 (OUMS-27 cells): reduced by GW9662
- cells found in excised bone tissues at ablative operation ([3]; GCTB patient who had taken zaltoprofen over four weeks at 240 mg per day, fat cell-like cells existed instead): cells characteristic to bone giant cells did not exist in the excised bone tissues
- Tunel-positive cells in excision sample [3, 8]: could be confirmed
- caspase 3-positive cells in excision sample [3, 8]: could be confirmed
- cells observed instead of the tumor [4]: fat cell-like cells showing enhanced expression of PPARγ were observed
- cell proliferation-inhibiting effect in the PPARγ siRNA addition group [5]: significantly suppressed
- suppression of proliferation of H-EMC-SS cells (H-EMC-SS cells [6]; 24 hours): suppressed proliferation
- cell proliferation-suppressing action with PPARγ siRNA (H-EMC-SS cells [6]; H-EMC-SS, PPARγ siRNA 100 nM 48 hours): completely eliminated
